Four compounds from ChEMBL document CHEMBL2346547, “Bifunctional inhibition of human immunodeficiency virus type 1 reverse transcriptase: mechanism and proof-of-concept as a novel therapeutic design strategy” (J Med Chem, 2013) can be followed below.

In assay [1] the target is T1, Human immunodeficiency virus type 1 reverse transcriptase (Human immunodeficiency virus 1, UniProt Q72547). In words: Competitive inhibition of C-Terminal histidine-tagged wild type heterodimeric HIV-1 reverse transcriptase p66/p51 assessed as inhibition of dGTP incorporation after 15 mins by PAGE.
In assay [2] the target is T1, Human immunodeficiency virus type 1 reverse transcriptase. In words: Competitive inhibition of C-Terminal histidine-tagged wild type heterodimeric HIV-1 reverse transcriptase p66/p51 assessed as inhibition of dTTP incorporation after 15 mins by PAGE.

Regarding `C#CCOCCOCCOCCOCCOCC#Cc1cc(C)c(Oc2ccnc(Nc3ccc(C#N)cc3)n2)c(C)c1`, the IC50 in assay [1] is 64 nM; in assay [2], 122 nM. For `Cc1cc(C#CCOCCOCCOCCOCCOCC#Cc2cn([C@H]3C=C[C@@H](COP(=O)(O)OP(=O)(O)OP(=O)(O)O)O3)c(=O)[nH]c2=O)cc(C)c1Oc1ccnc(Nc2ccc(C#N)cc2)n1` the same measures were 42 nM and 3 nM. Consider `Cc1cc(C#N)cc(C)c1Oc1ccnc(Nc2ccc(C#N)cc2)n1`, for which the IC50 in assay [1] worked out at 9 nM; in assay [2] it was 13 nM. For `Cc1cn([C@H]2C=C[C@@H](COP(=O)(O)OP(=O)(O)OP(=O)(O)O)O2)c(=O)[nH]c1=O` [STAVUDINE TRIPHOSPHATE], in assay [2], the IC50 is 13000 nM.
